# Assay results published in ChEMBL document CHEMBL3885881, “DrugMatrix”.
# Organism: Rattus norvegicus
# Experiment: DrugMatrix - Regimen: Daily Repeat
# Assay type: toxicity, organism-based, Sprague-Dawley
# Design: regimen Daily Repeat, gender Male, age 6-8 weeks
# Details: in vivo, iv, 1000 mg/kg, dose level High, vehicle 100 % SALINE; for ABSOLUTE BASOPHIL / ABSOLUTE EOSINOPHIL / ABSOLUTE LYMPHOCYTE / ABSOLUTE MONOCYTE / ABSOLUTE SEGMENTED NEUTROPHIL / BASOPHIL / EOSINOPHIL / ERYTHROCYTE COUNT / HEMATOCRIT / HEMOGLOBIN / LEUKOCYTE COUNT / LYMPHOCYTE / MEAN CORPUSCULAR HEMOGLOBIN / MEAN CORPUSCULAR HEMOGLOBIN CONCENTRATION / MEAN CORPUSCULAR VOLUME / MONOCYTE / NEUTROPHIL / NUCLEATED RED BLOOD CELLS / PLATELET COUNT: tissue Blood; for ALANINE AMINOTRANSFERASE / ALBUMIN / ALKALINE PHOSPHATASE / ASPARTATE AMINOTRANSFERASE / BLOOD UREA NITROGEN / CARBON DIOXIDE / CHLORIDE / CHOLESTEROL / CREATINE PHOSPHOKINASE / CREATININE / GLUCOSE / LACTATE DEHYDROGENASE / LIPASE / PHOSPHORUS / POTASSIUM / SODIUM / TOTAL BILIRUBIN / TOTAL PROTEIN / URIC ACID: tissue Plasma
structure (smiles),measurement,setting,value
CO/N=C(\C(=O)N[C@@H]1C(=O)N2C(C(=O)O)=C(COC(C)=O)CS[C@H]12)c1csc(N)n1 [CEFOTAXIME],ABSOLUTE BASOPHIL,"72 h, time 3 day",0 CELLS/uL
same,ABSOLUTE EOSINOPHIL,"72 h, time 3 day",92 CELLS/uL
same,ABSOLUTE LYMPHOCYTE,"72 h, time 3 day",10640.67 CELLS/uL
same,ABSOLUTE MONOCYTE,"72 h, time 3 day",57.67 CELLS/uL
same,ABSOLUTE SEGMENTED NEUTROPHIL,"72 h, time 3 day",1309.67 CELLS/uL
same,BASOPHIL,"72 h, time 3 day",0%
same,EOSINOPHIL,"72 h, time 3 day",0.67%
same,ERYTHROCYTE COUNT,"72 h, time 3 day",5.89 x10E6/uL
same,HEMATOCRIT,"72 h, time 3 day",38.83%
same,HEMOGLOBIN,"72 h, time 3 day",13.87 G/DL
same,LEUKOCYTE COUNT,"72 h, time 3 day",12.1 x10E3/uL
same,LYMPHOCYTE,"72 h, time 3 day",88%
same,MEAN CORPUSCULAR HEMOGLOBIN,"72 h, time 3 day",23.53 pg
same,MEAN CORPUSCULAR HEMOGLOBIN CONCENTRATION,"72 h, time 3 day",35.73 G/DL
same,MEAN CORPUSCULAR VOLUME,"72 h, time 3 day",65.93 fL
same,MONOCYTE,"72 h, time 3 day",0.33%
same,NEUTROPHIL,"72 h, time 3 day",11%
same,NUCLEATED RED BLOOD CELLS,"72 h, time 3 day",0.33 /100WBC
same,PLATELET COUNT,"72 h, time 3 day",1356.67 x10E3/uL
same,ALANINE AMINOTRANSFERASE,"72 h, time 3 day",52.33 u/L
same,ALBUMIN,"72 h, time 3 day",4.4 G/DL
same,ALKALINE PHOSPHATASE,"72 h, time 3 day",407.67 u/L
same,ASPARTATE AMINOTRANSFERASE,"72 h, time 3 day",70.33 u/L
same,BLOOD UREA NITROGEN,"72 h, time 3 day",16.67 mg/dL
same,CARBON DIOXIDE,"72 h, time 3 day",29.33 mmol/L
same,CHLORIDE,"72 h, time 3 day",102.33 MEQ/L
same,CHOLESTEROL,"72 h, time 3 day",85.33 mg/dL
same,CREATINE PHOSPHOKINASE,"72 h, time 3 day",225 u/L
same,CREATININE,"72 h, time 3 day",0.27 mg/dL
same,GLUCOSE,"72 h, time 3 day",150 mg/dL
same,LACTATE DEHYDROGENASE,"72 h, time 3 day",77 u/L
same,LIPASE,"72 h, time 3 day",9.67 u/L
same,PHOSPHORUS,"72 h, time 3 day",11.8 mg/dL
same,POTASSIUM,"72 h, time 3 day",6.59 MEQ/L
same,SODIUM,"72 h, time 3 day",146.77 MEQ/L
same,TOTAL BILIRUBIN,"72 h, time 3 day",0.17 mg/dL
same,TOTAL PROTEIN,"72 h, time 3 day",6.43 G/DL
same,URIC ACID,"72 h, time 3 day",2.1 mg/dL
same,ABSOLUTE BASOPHIL,"120 h, time 5 day",0 CELLS/uL
same,ABSOLUTE EOSINOPHIL,"120 h, time 5 day",63 CELLS/uL
same,ABSOLUTE LYMPHOCYTE,"120 h, time 5 day",13558.67 CELLS/uL
same,ABSOLUTE MONOCYTE,"120 h, time 5 day",820 CELLS/uL
same,ABSOLUTE SEGMENTED NEUTROPHIL,"120 h, time 5 day",3591.67 CELLS/uL
same,BASOPHIL,"120 h, time 5 day",0%
same,EOSINOPHIL,"120 h, time 5 day",0.33%
same,ERYTHROCYTE COUNT,"120 h, time 5 day",5.88 x10E6/uL
same,HEMATOCRIT,"120 h, time 5 day",37.4%
same,HEMOGLOBIN,"120 h, time 5 day",14 G/DL
same,LEUKOCYTE COUNT,"120 h, time 5 day",18.03 x10E3/uL
same,LYMPHOCYTE,"120 h, time 5 day",75.33%
same,MEAN CORPUSCULAR HEMOGLOBIN,"120 h, time 5 day",23.8 pg
same,MEAN CORPUSCULAR HEMOGLOBIN CONCENTRATION,"120 h, time 5 day",37.47 G/DL
same,MEAN CORPUSCULAR VOLUME,"120 h, time 5 day",63.57 fL
same,MONOCYTE,"120 h, time 5 day",4.67%
same,NEUTROPHIL,"120 h, time 5 day",19.67%
same,NUCLEATED RED BLOOD CELLS,"120 h, time 5 day",0 /100WBC
same,PLATELET COUNT,"120 h, time 5 day",1367 x10E3/uL
same,ALANINE AMINOTRANSFERASE,"120 h, time 5 day",57.67 u/L
same,ALBUMIN,"120 h, time 5 day",4 G/DL
same,ALKALINE PHOSPHATASE,"120 h, time 5 day",325.67 u/L
same,ASPARTATE AMINOTRANSFERASE,"120 h, time 5 day",70.67 u/L
same,BLOOD UREA NITROGEN,"120 h, time 5 day",19 mg/dL
same,CARBON DIOXIDE,"120 h, time 5 day",23.67 mmol/L
same,CHLORIDE,"120 h, time 5 day",104.67 MEQ/L
same,CHOLESTEROL,"120 h, time 5 day",86.33 mg/dL
same,CREATINE PHOSPHOKINASE,"120 h, time 5 day",235.67 u/L
same,CREATININE,"120 h, time 5 day",0.3 mg/dL
same,GLUCOSE,"120 h, time 5 day",163.33 mg/dL
same,LACTATE DEHYDROGENASE,"120 h, time 5 day",138.67 u/L
same,LIPASE,"120 h, time 5 day",10 u/L
same,PHOSPHORUS,"120 h, time 5 day",12.13 mg/dL
same,POTASSIUM,"120 h, time 5 day",6.32 MEQ/L
same,SODIUM,"120 h, time 5 day",145.77 MEQ/L
same,TOTAL BILIRUBIN,"120 h, time 5 day",0.13 mg/dL
same,TOTAL PROTEIN,"120 h, time 5 day",6.3 G/DL
same,URIC ACID,"120 h, time 5 day",1.7 mg/dL
